pIC50: −log10 of the molar value. Like-named read-outs stand apart in the source and are kept apart here.
Experiments:
[1] = in vitro; conditions: mouse
[2] = system: Leishmania infantum MHOM/MA(BE)/67/ITMAP263 intracellular amastigotes; assay: microbe, parasite or virus in culture; conditions: Macrophage, in Mus musculus
[3] = in vitro; conditions: human
[4] = in vitro; conditions: human, HepG2 cells
[5] = system: Trypanosoma cruzi, Tulahuen CL2, beta-galactosidase strain; assay: microbe, parasite or virus in culture; conditions: MRC5, read-out: T. cruzi Tulahuen C4 (LacZ) IC50
[6] = system: Leishmania infantum (MHOM/MA/67/ITMAP-263) intracellular amastigotes in THP-1; assay: microbe, parasite or virus in culture; conditions: THP-1, read-out: L. infantum MHOM/MA/67/ITMAP263 intracellular amastigotes THP-1 cells IC50
[7] = physchem; conditions: HPLC, Ascentis Express RP Amide column, pH 7.4, eLogD, experimental
[8] = in vitro; conditions: human, HFF-1 cells
[9] = system: primary peritoneal mouse macrophages (PMM); assay: cells; conditions: Macrophage, read-out: PMM IC50
[10] = in vitro; conditions: human; remark: listed apart in the source
[11] = in vitro; conditions: PAMPA
[12] = in vitro; conditions: human, THP-1 cells differentiated with PMA
[13] = system: axenic L. don. amastigotes (MHOM/SD/62/1S-CL2, LdBOB); assay: microbe, parasite or virus in culture; conditions: Leishmania donovani; for pIC50: read-out: L. donovani MHOM/SD/62/1SCL2D axenic-cidal amastigotes IC50; for IC50: read-out: L. don. pIC50 (converted)
[14] = system: L. donovani MHOM/SD/62/1SCL2D intracellular amastigotes; assay: microbe, parasite or virus in culture; conditions: Leishmania donovani, read-out: L. donovani MHOM/SD/62/1SCL2D intracellular amastigotes IC50
[15] = system: L. donovani MHOM/ET/67/L82 intracellular amastigotes; assay: microbe, parasite or virus in culture; conditions: Leishmania donovani, read-out: L. donovani MHOM/ET/67/L82 intracellular amastigotes IC50
[16] = in vitro; conditions: human, HepG2 cells; remark: listed apart in the source
[17] = microsomes, pH 7.4, MLM CLint, mouse liver microsomes
[18] = read-out: L. Inf. pIC50, L. infantum intracellular amastigotes (converted)
[19] = read-out: L. infantum MHOM/MA(BE)/67/ITMAP263 intracellular amastigotes IC50, intracellular amastigotes
[20] = microsomes, pH 7.4, HLM CLint, human liver microsomes
[21] = read-out: L. Inf. pIC50 (converted)
[22] = read-out: L. infantum MHOM/MA(BE)/67/ITMAP263 intracellular amastigotes IC50
[23] = s9, pH 7.4, Clint mouse mic., Fig. 2, mouse microsomes (S9 fractions)
[24] = read-out: L. inf. pIC50, intracellular amastigotes in PMM (converted), geometric mean of a minimum of two experiments ± standard error
[25] = s9, pH 7.4, Clint human mic., Fig. 2, human microsomes (S9 fractions)

Row | Structure (SMILES) | IC50 [2, 18] [µM] | pIC50 [2, 19] | CC50 at 3 days [3] [µM] | CC50 [4] [µM] | pIC50 [5] | pIC50 [6] | chromatographic logD [7] | CC50 [8] [µM] | pIC50 [9] | CC50 at 120 h [12] [µM] | pIC50 [13] | other results
1 | COCCN(Cc1ccccc1)S(=O)(=O)c1c(OC)ccc(Cl)c1S(C)(=O)=O [DNDI0003578381] | 51.3 | 4.29 | > 64 | > 64 | < 4.19 | < 4.19 | 2.6 | > 64 | < 4.19 | > 64 |  | microsomal CLint at 0.5 μM [1, 17]: 176 µL/min/mg; microsomal CLint at 0.5 μM [10, 20]: 51 µL/min/mg; Papp [11]: 14.6 ×10⁻⁶ cm/s
2 | O=S(=O)(c1ccc2nncn2c1)N(Cc1ccccc1F)c1ccc2c(c1)OCO2 [DNDI0003321889] |  |  |  |  |  |  |  |  |  |  | < 4.52 | 
3 | COc1ccc(S(N)(=O)=O)cc1S(=O)(=O)N(Cc1ccccc1)Cc1ccccc1 [DNDI0003578385] | 0.562 | 6.25 | 13.3 | > 64 | 5.33 | 5.24 | 3.5 | 22.2 | < 4.19 | > 64 |  | microsomal CLint at 0.5 μM [1, 17]: 366 µL/min/mg; microsomal CLint at 0.5 μM [10, 20]: 58 µL/min/mg; Papp [11]: 3.76 ×10⁻⁶ cm/s
4 | CCCCCOc1cc(C)c(Cl)cc1S(=O)(=O)NCc1ccco1 [DNDI0002567970] |  |  | 11.7 |  |  |  |  |  | < 4.49 | > 50 | 4.92 | pIC50 [14]: 4.32; pIC50 [15]: 5.32; IC50 [2, 21]: 1.07 µM; pIC50 [2, 22]: 5.97; CC50 [16]: > 50 µM
5 | Cc1nnc2ccc(S(=O)(=O)N(Cc3cccc(F)c3)c3ccc4c(c3)OCO4)cn12 [DNDI0003321887] |  |  |  |  |  |  |  |  |  |  | < 4.52 | 
6 | COc1cc(S(=O)(=O)N(Cc2ccccc2)Cc2ccccc2)c(OC)cc1C [Compound 6] |  |  |  |  |  |  |  |  |  |  |  | IC50 [13]: 1.51 µM; microsomal CLint at 0.5 μM [1, 23]: 1080 µL/min/mg; IC50 [2, 24]: 0.501 µM; microsomal CLint at 0.5 μM [10, 25]: 828 µL/min/mg
7 | CCCOc1cc(C)c(C)cc1S(=O)(=O)NC1CCCC1 [DNDI0002550535] |  |  | > 32 |  | < 4.49 |  |  |  | < 4.49 |  |  | pIC50 [15]: < 4.49; IC50 [2, 21]: > 32 µM; pIC50 [2, 22]: < 4.49
8 | CCCCOc1cc(C)c(Cl)cc1S(=O)(=O)NCc1cccs1 [DNDI0002620367] |  |  | 4.56 |  |  |  |  |  | < 4.49 | > 50 | 4.96 | pIC50 [14]: 4.66; pIC50 [15]: 5.27; IC50 [2, 21]: 0.794 µM; pIC50 [2, 22]: 6.10; CC50 [16]: > 50 µM
9 | O=S1(=O)c2ccccc2[C@H](O)[C@H](Cc2ccccc2)N1Cc1ccccc1 [DNDI0003578379] | 13.5 | 4.87 | 29.7 | > 64 | 5.17 | 4.92 | 3.9 | 27 | < 4.19 | 39.4 |  | 
10 | CCCCCOc1cc(C)c(C)cc1S(=O)(=O)NC1CCCC1 [Compound 8] |  |  |  |  |  |  |  |  |  |  |  | IC50 [13]: 12 µM; microsomal CLint at 0.5 μM [1, 23]: 416 µL/min/mg; IC50 [2, 24]: 0.589 µM; microsomal CLint at 0.5 μM [10, 25]: 567 µL/min/mg
11 | CCCCCOc1cc(C)c(Cl)cc1S(=O)(=O)NCc1cccs1 [Compound 7] |  |  |  |  |  |  |  |  |  |  |  | IC50 [13]: 4.37 µM; microsomal CLint at 0.5 μM [1, 23]: 693 µL/min/mg; IC50 [2, 24]: 0.447 µM; microsomal CLint at 0.5 μM [10, 25]: 624 µL/min/mg
12 | CCCN(Cc1ccc(F)cc1)S(=O)(=O)c1cc([S+](C)[O-])ccc1OC (stereo not drawn) [DNDI0003578384] | 11 | 4.96 | > 64 | > 64 | 4.41 | < 4.19 | 3.1 | > 64 | < 4.19 | > 64 |  | microsomal CLint at 0.5 μM [1, 17]: 437 µL/min/mg; microsomal CLint at 0.5 μM [10, 20]: 67 µL/min/mg; Papp [11]: 18.6 ×10⁻⁶ cm/s
